# Measurements: patent US12668845B2, “Methods for predicting drug responsiveness in cancer patients” (Allarity Therapeutics Europe ApS, priority 2018, dated 2026)
# Key:
# HL-60 = test: Growth inhibition of cell lines treated with 2X-121; assay type: cell-based; conditions: Homo sapiens; cell line HL-60, origin Promyelocytic leukemia; read-out: Measured growth inhibition IC50
# HEC-88nu = test: as above; assay type: cell-based; conditions: cell line HEC-88nu, origin Endometrial; read-out: Measured growth inhibition IC50
# Toledo = test: as above; assay type: cell-based; conditions: Homo sapiens; cell line Toledo, origin DLBCL (GC); read-out: Measured growth inhibition IC50
# SNU-182 = test: as above; assay type: cell-based; conditions: Homo sapiens; cell line SNU-182, origin HCC; read-out: Measured growth inhibition IC50
# HEC-1 = test: as above; assay type: cell-based; conditions: Homo sapiens; cell line HEC-1, origin Endometrial; read-out: Measured growth inhibition IC50
# NCI-H69 = test: as above; assay type: cell-based; conditions: Homo sapiens; cell line NCI-H69, origin SCLC; read-out: Measured growth inhibition IC50
# SF-295 = test: as above; assay type: cell-based; conditions: Homo sapiens; cell line SF-295, origin GBM; read-out: Measured growth inhibition IC50
# HEC-151 = test: as above; assay type: cell-based; conditions: cell line HEC-151, origin Endometrial; read-out: Measured growth inhibition IC50
# JVM-13 = test: as above; assay type: cell-based; conditions: JVM13; cell line JVM-13, origin MCL; read-out: Measured growth inhibition IC50
# Jeko-1 = test: as above; assay type: cell-based; conditions: Homo sapiens; cell line Jeko-1, origin MCL; read-out: Measured growth inhibition IC50
# AN3 CA = test: as above; assay type: cell-based; conditions: Homo sapiens; cell line AN3 CA, origin Endometrial; read-out: Measured growth inhibition IC50
# NCI-H929 = test: as above; assay type: cell-based; conditions: Homo sapiens; cell line NCI-H929, origin Myeloma; read-out: Measured growth inhibition IC50
# HEC-59 = test: as above; assay type: cell-based; conditions: cell line HEC-59, origin Endometrial; read-out: Measured growth inhibition IC50
# NCI-H1694 = test: as above; assay type: cell-based; conditions: Homo sapiens; cell line NCI-H1694, origin SCLC; read-out: Measured growth inhibition IC50
# K562 = test: as above; assay type: cell-based; conditions: Homo sapiens; cell line K562, origin Erythroleukemia from CML Pt; read-out: Measured growth inhibition IC50
# tumor = test: Phase I trial of 2X-121 (NCT01618136), clinical response; assay type: in vivo, human; parameters: key to RECIST: SD = stable disease; PD = progressive disease; PR = partial response
# Procedure: A Phase I trial of 2X-121 was conducted in the UK (clinicaltrial.gov number NCT01618136). 2X-121 was administered as daily oral doses of 50-800 mg. Of 41 patients enrolled in the Phase I trial, 35 had response assessment. Of these, 2 had partial response (PR) (5% overall response rate (ORR)) and 13 had stable disease (SD). Biopsies and BRCA analysis were voluntary and available from 16, and 7 patients, respectively.
# Of the 16 patients with biopsies, 13 passed our quality control (QC) in the lab and were assayed on the Affymetrix HG-U133Plus2 array.
# A statistical analysis plan was completed before initiation of blinded prediction of 2X-121 sensitivity on the 13 samples. In this analysis, the difference of the mean expression of genes in Table 3 were subtracted from the mean expression of genes in Table 2 for each patient to determine a difference score. This score was compared to a reference population of 819 breast cancer patients to convert the difference score to a percentile score. The percentile score is shown in Table 4 as “DRP score” and used for FIGS. 3 and 4, and Tables 5 and 6.
# [1] = Patient 1, tumor pancreas, 2X-121 dose 600 mg
# [2] = Patient 2, tumor mesothelioma, 2X-121 dose 200 mg
# [3] = Patient 3, tumor pancreas, 2X-121 dose 600 mg
# [4] = Patient 4, tumor intestine, 2X-121 dose 600 mg
# [5] = Patient 5, tumor ovary, 2X-121 dose 600 mg
# [6] = Patient 6, tumor lung, 2X-121 dose 50 mg
# [7] = Patient 7, tumor pancreas, 2X-121 dose 50 mg
# [8] = Patient 8, tumor adrenal, 2X-121 dose 400 mg
# [9] = Patient 9, tumor kidney, 2X-121 dose 400 mg
# [10] = Patient 10, tumor ovary, 2X-121 dose 800 mg
# [11] = Patient 11, tumor ovary, 2X-121 dose 800 mg
# [12] = Patient 12, tumor pancreas, 2X-121 dose 600 mg
# [13] = Patient 13, tumor gallbladder, 2X-121 dose 600 mg
# [14] = predicted resistant group (below DRP cutoff 50, N=7)
smiles,measurement,setting,value
"O=c1[nH]nc2c3c(cccc13)N=C(CN1Cc3ccccc3C1)N2 [2X-121, 8-(isoindolin-2-ylmethyl)-2,9-dihydro-3H-pyridazino[3,4,5-de]quinazolin-3-one]",IC50,HL-60,10300 nM
same,IC50,HEC-88nu,1140 nM
same,IC50,Toledo,1600 nM
same,IC50,SNU-182,5400 nM
same,IC50,HEC-1,1280 nM
same,IC50,NCI-H69,1330 nM
same,IC50,SF-295,2600 nM
same,IC50,HEC-151,1440 nM
same,IC50,JVM-13,7300 nM
same,IC50,Jeko-1,1900 nM
same,IC50,AN3 CA,1490 nM
same,IC50,NCI-H929,5200 nM
same,IC50,HEC-59,2440 nM
same,IC50,NCI-H1694,2470 nM
same,IC50,K562,4300 nM
same,response rate,"tumor; BRCA mutated population, 1 of 6 responded",16%
same,TimeOS,"tumor; Patient 1, tumor pancreas, 600 mg, StatusOS Death",208 days
same,TimePFS,"tumor; Patient 1, tumor pancreas, 600 mg, StatusPFS censored",42 days
same,"Diameter (%), change from baseline",tumor; [1],−10%
same,RECIST,tumor; [1],SD
same,TimeOS,"tumor; Patient 2, tumor mesothelioma, 200 mg, StatusOS Death",167 days
same,TimePFS,"tumor; Patient 2, tumor mesothelioma, 200 mg, StatusPFS Progression",50 days
same,"Diameter (%), change from baseline",tumor; [2],1%
same,RECIST,tumor; [2],PD
same,TimeOS,"tumor; Patient 3, tumor pancreas, 600 mg, StatusOS censored",406 days
same,TimePFS,"tumor; Patient 3, tumor pancreas, 600 mg, StatusPFS censored",321 days
same,"Diameter (%), change from baseline",tumor; [3],−22%
same,RECIST,tumor; [3],SD
same,TimeOS,"tumor; Patient 4, tumor intestine, 600 mg, StatusOS Death",120 days
same,TimePFS,"tumor; Patient 4, tumor intestine, 600 mg, StatusPFS Progression",59 days
same,"Diameter (%), change from baseline",tumor; [4],23%
same,RECIST,tumor; [4],PD
same,TimeOS,"tumor; Patient 5, tumor ovary, 600 mg, StatusOS censored",379 days
same,TimePFS,"tumor; Patient 5, tumor ovary, 600 mg, StatusPFS Progression",331 days
same,"Diameter (%), change from baseline",tumor; [5],−83%
same,RECIST,tumor; [5],PR
same,TimeOS,"tumor; Patient 6, tumor lung, 50 mg, StatusOS censored",466 days
same,TimePFS,"tumor; Patient 6, tumor lung, 50 mg, StatusPFS Progression",155 days
same,"Diameter (%), change from baseline",tumor; [6],5%
same,RECIST,tumor; [6],SD
same,TimeOS,"tumor; Patient 7, tumor pancreas, 50 mg, StatusOS Death",335 days
same,TimePFS,"tumor; Patient 7, tumor pancreas, 50 mg, StatusPFS censored",262 days
same,"Diameter (%), change from baseline",tumor; [7],3%
same,RECIST,tumor; [7],SD
same,TimeOS,"tumor; Patient 8, tumor adrenal, 400 mg, StatusOS Death",190 days
same,TimePFS,"tumor; Patient 8, tumor adrenal, 400 mg, StatusPFS Progression",50 days
same,"Diameter (%), change from baseline",tumor; [8],40%
same,RECIST,tumor; [8],PD
same,TimeOS,"tumor; Patient 9, tumor kidney, 400 mg, StatusOS censored",865 days
same,TimePFS,"tumor; Patient 9, tumor kidney, 400 mg, StatusPFS Progression",276 days
same,"Diameter (%), change from baseline",tumor; [9],−2%
same,RECIST,tumor; [9],SD
same,TimeOS,"tumor; Patient 10, tumor ovary, 800 mg, StatusOS Death",301 days
same,TimePFS,"tumor; Patient 10, tumor ovary, 800 mg, StatusPFS Progression",50 days
same,"Diameter (%), change from baseline",tumor; [10],26%
same,RECIST,tumor; [10],PD
same,TimeOS,"tumor; Patient 11, tumor ovary, 800 mg, StatusOS censored",715 days
same,TimePFS,"tumor; Patient 11, tumor ovary, 800 mg, StatusPFS Progression",315 days
same,"Diameter (%), change from baseline",tumor; [11],−46%
same,RECIST,tumor; [11],PR
same,TimeOS,"tumor; Patient 12, tumor pancreas, 600 mg, StatusOS Death",257 days
same,TimePFS,"tumor; Patient 12, tumor pancreas, 600 mg, StatusPFS Progression",189 days
same,"Diameter (%), change from baseline",tumor; [12],−7%
same,RECIST,tumor; [12],SD
same,TimeOS,"tumor; Patient 13, tumor gallbladder, 600 mg, StatusOS Death",121 days
same,TimePFS,"tumor; Patient 13, tumor gallbladder, 600 mg, StatusPFS Progression",41 days
same,"Diameter (%), change from baseline",tumor; [13],3%
same,RECIST,tumor; [13],PD
same,patients with partial response (PR),"tumor; Phase I, daily oral 50-800 mg, of 35 patients with response assessment",2
same,overall response rate (ORR),"tumor; Phase I, daily oral doses of 50-800 mg, 41 enrolled, 35 with response assessment",5%
same,"hazard ratio, progression-free survival (PFS)","tumor; above DRP cutoff of 50 (N=6) vs below (N=7), P=0.2 one-sided",0.59
same,"hazard ratio, overall survival (OS)","tumor; above dose-adjusted DRP cutoff of 50 (N=6) vs below (N=7), P=0.04 one sided",0.26
same,response rate,"tumor; all 13 patients analyzed with DRP (cutoff 0, 100% of population), 2/13",15%
same,response rate,"tumor; patients above dose-adjusted DRP cutoff of 50, 2/6",33%
same,median PFS,tumor; [14],155 days
same,median survival,tumor; [14],208 days
same,median PFS,"tumor; predicted sensitive group (above DRP cutoff 50, N=6)",296 days
